In the supplement of paper PMC5412046:
Where a name gives a salt, the structure may show the parent alone.

What was measured:
SB.mhdgc-1 [1] = assay: viability at highest tested concentration (MAXR) relative to DMSO; higher = less cytotoxic; conditions: SB.mhdgc-1 (hereditary c.1380delA CDH1 gastric cancer)
Procedure, shortened: (§1)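 Each entry is viability relative to DMSO, given either at the highest concentration tested or as a trapezoidal area under the curve. Gastric cancer cells from hereditary or sporadic patients (500 cells in 5 μL medium per 1536 well) received compound in DMSO at 11 threefold-diluted concentrations, 23 nL by pintool. Luminescence from CellTiter-Glo was read after 48 h.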

SB.msgc-1 [2] = assay: as above; conditions: SB.msgc-1 (sporadic gastric cancer)
Procedure, shortened: as §1

SB.mhdgc-1 [3] = assay: area under the dose-response curve of % viability (trapezoidal, 11 doses) (% viability x log10 concentration); higher = less cytotoxic; conditions: SB.mhdgc-1 (hereditary c.1380delA CDH1 gastric cancer)
Procedure, shortened: as §1

SB.msgc-1 [4] = assay: as above; conditions: SB.msgc-1 (sporadic gastric cancer)
Procedure, shortened: as §1

## Nc1cccc([S+](=O)([O-])N2CCCN([S+](=O)([O-])c3ccc4c(c3)OCCO4)CC2)c1 (top concentration 46.0829 µM)
SB.mhdgc-1 [1]
  viability: 95.2%
SB.msgc-1 [2]
  viability: 53.4%
SB.mhdgc-1 [3]
  area under the dose-response curve: 516
SB.msgc-1 [4]
  area under the dose-response curve: 481

## CN(C(Cc1ccc(O[S+](=O)([O-])c2cccc3cnccc23)cc1)C(=O)N1CCN(c2ccccc2)CC1)[S+](=O)([O-])c1cccc2cnccc12 (stereo unspecified) [KN-62] (top concentration 46.0829 µM)
SB.mhdgc-1 [1]
  viability: 36.3%
SB.msgc-1 [2]
  viability: 54.6%
SB.mhdgc-1 [3]
  area under the dose-response curve: 374
SB.msgc-1 [4]
  area under the dose-response curve: 459

## O=C(O)c1cc(O)c2c(c1)C(=O)c1cccc(O)c1C2=O [Rhein] (top concentration 92.1659 µM)
SB.mhdgc-1 [1]
  viability: 53.8%
SB.msgc-1 [2]
  viability: 43.1%
SB.mhdgc-1 [3]
  area under the dose-response curve: 588
SB.msgc-1 [4]
  area under the dose-response curve: 570

## COc1cccc2c1[C@]13CCN(CC4CC4)[C@H](C2)[C@]1(OC)CCC(=O)C3 [Cyprodime] (top concentration 46.0829 µM)
SB.mhdgc-1 [1]
  viability: 125%
SB.msgc-1 [2]
  viability: 112%
SB.mhdgc-1 [3]
  area under the dose-response curve: 567
SB.msgc-1 [4]
  area under the dose-response curve: 526

## CNC(=O)c1ccc2c(c1)NC(=O)/C2=C(\Nc1cccc(CN(C)C)c1)c1ccccc1 (top concentration 46.0829 µM)
SB.mhdgc-1 [1]
  viability: 41.1%
SB.msgc-1 [2]
  viability: 64.9%
SB.mhdgc-1 [3]
  area under the dose-response curve: 413
SB.msgc-1 [4]
  area under the dose-response curve: 518

## COC(=O)Nc1ccc(-c2nc(N3CCOCC3)c3cnn(C4CCN(C(=O)OC)CC4)c3n2)cc1 [WYE-354] (top concentration 46.0829 µM)
SB.mhdgc-1 [1]
  viability: 34.2%
SB.msgc-1 [2]
  viability: 57.3%
SB.mhdgc-1 [3]
  area under the dose-response curve: 191
SB.msgc-1 [4]
  area under the dose-response curve: 339

## CCCCCCCCCCCCc1ccc([S+](=O)([O-])Nc2nncs2)cc1 [PHT-427] (top concentration 46.0829 µM)
SB.mhdgc-1 [1]
  viability: 78.6%
SB.msgc-1 [2]
  viability: 96.5%
SB.mhdgc-1 [3]
  area under the dose-response curve: 512
SB.msgc-1 [4]
  area under the dose-response curve: 502

## Cc1cc(O)c2c3c4c(cc(O)c13)C(C)(C)C(=O)c1c(O)cc(O)c(c1-4)C2=O [Resistomycin] (top concentration 46.0829 µM)
SB.mhdgc-1 [1]
  viability: 9.08%
SB.msgc-1 [2]
  viability: 23.5%
SB.mhdgc-1 [3]
  area under the dose-response curve: 517
SB.msgc-1 [4]
  area under the dose-response curve: 522

## CC(C)NCC(O)COc1ccc(CCOCC2CC2)cc1 (stereo unspecified) [Betaxolol hydrochloride] (top concentration 46.0829 µM)
SB.mhdgc-1 [1]
  viability: 129%
SB.msgc-1 [2]
  viability: 102%
SB.mhdgc-1 [3]
  area under the dose-response curve: 610
SB.msgc-1 [4]
  area under the dose-response curve: 539

## Nc1nccc(-c2ccc3noc(-c4ccc(Cl)cc4)c3c2)n1 [Pim 1 inhibitor 2] (top concentration 46.0829 µM)
SB.mhdgc-1 [1]
  viability: 62.6%
SB.msgc-1 [2]
  viability: 45.2%
SB.mhdgc-1 [3]
  area under the dose-response curve: 490
SB.msgc-1 [4]
  area under the dose-response curve: 468

## C[C@@H]1C[C@H]2[C@@H]3CC\C4=C\C(=O)\C=C/[C@]4(C)[C@@]3(Cl)[C@@H](O)C[C@]2(C)[C@@]1(OC(=O)C5=CC=CO5)C(=O)CCl [Mometasone furoate] (top concentration 46.0829 µM)
SB.mhdgc-1 [1]
  viability: 4.2%
SB.msgc-1 [2]
  viability: 20.5%
SB.mhdgc-1 [3]
  area under the dose-response curve: 398
SB.msgc-1 [4]
  area under the dose-response curve: 501

## COC(=O)[C@@H](N)CCCNC(=N)N[N+](=O)[O-] [L-NAME] (top concentration 46.0829 µM)
SB.mhdgc-1 [1]
  viability: 21.9%
SB.msgc-1 [2]
  viability: 48.5%
SB.mhdgc-1 [3]
  area under the dose-response curve: 460
SB.msgc-1 [4]
  area under the dose-response curve: 509

## CC(=O)NC(C)c1ccc(Oc2ccc(OC(C)C)cc2)cc1 (stereo unspecified) [ACC1 BMS] (top concentration 46.0829 µM)
SB.mhdgc-1 [1]
  viability: 45.2%
SB.msgc-1 [2]
  viability: 62.3%
SB.mhdgc-1 [3]
  area under the dose-response curve: 532
SB.msgc-1 [4]
  area under the dose-response curve: 539

## O=C(NOCC(O)CO)c1cc(Br)c(F)c(F)c1Nc1ccc(I)cc1F (stereo unspecified) (top concentration 46.0829 µM)
SB.mhdgc-1 [1]
  viability: 73.9%
SB.msgc-1 [2]
  viability: 60.1%
SB.mhdgc-1 [3]
  area under the dose-response curve: 398
SB.msgc-1 [4]
  area under the dose-response curve: 444

## C=C1C(=O)O[C@@H]2[C@H]3O[C@]3(C)CC/C=C(\C)CC[C@@H]12 [Parthenolide] (top concentration 46.0829 µM)
SB.mhdgc-1 [1]
  viability: 1.25%
SB.msgc-1 [2]
  viability: 0.8%
SB.mhdgc-1 [3]
  area under the dose-response curve: 434
SB.msgc-1 [4]
  area under the dose-response curve: 457

## COc1cc2c(cc1OC)CN(CCc1ccc(NC(=O)c3cc(OC)c(OC)cc3NC(=O)c3cnc4ccccc4c3)cc1)CC2 [Tariquidar] (top concentration 46.0829 µM)
SB.mhdgc-1 [1]
  viability: 32.1%
SB.msgc-1 [2]
  viability: 31.5%
SB.mhdgc-1 [3]
  area under the dose-response curve: 498
SB.msgc-1 [4]
  area under the dose-response curve: 482

## CC(C)c1c(C(=O)Nc2ccccc2)c(-c2ccccc2)c(-c2ccc(F)cc2)n1CC[C@@H](O)C[C@@H](O)CC(=O)[O-] [Atorvastatin calcium] (top concentration 46.0829 µM)
SB.mhdgc-1 [1]
  viability: 68.4%
SB.msgc-1 [2]
  viability: 39%
SB.mhdgc-1 [3]
  area under the dose-response curve: 510
SB.msgc-1 [4]
  area under the dose-response curve: 351

## Cc1nc(-c2ccc(OCC(C)C)c(C#N)c2)sc1C(=O)O [Febuxostat] (top concentration 46.0829 µM)
SB.mhdgc-1 [1]
  viability: 103%
SB.msgc-1 [2]
  viability: 104%
SB.mhdgc-1 [3]
  area under the dose-response curve: 504
SB.msgc-1 [4]
  area under the dose-response curve: 568

## OCc1ccc(-c2nn(Cc3ccccc3)c3ccccc23)o1 [Lificiguat] (top concentration 46.0829 µM)
SB.mhdgc-1 [1]
  viability: 80.3%
SB.msgc-1 [2]
  viability: 84%
SB.mhdgc-1 [3]
  area under the dose-response curve: 516
SB.msgc-1 [4]
  area under the dose-response curve: 548
